ChEMBL document CHEMBL1201862, “PubChem BioAssay data set” (2004)
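A five-concentration, 48-hour dose response in 96-well plates underlies each endpoint, interpolated linearly between surrounding concentrations. The concentration for 50% growth inhibition is given as GI50.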 Active and inactive are the calls of the source. No stated cut-off is given here; in the data, active = GI50 up to about 1.1 µM and inactive = higher.

How the values were obtained:
Experiment in all cases: inhibition of tumour cell growth, NCI panel, 48 h
DMS-114 = system: DMS-114
NCI-H460 = system: NCI-H460
NCI-H226 = system: NCI-H226
UACC-62 = system: UACC-62
KM-20L2 = system: KM-20L2
HOP-62 = system: HOP-62
IGROV-1 = system: IGROV-1
SNB-78 = system: SNB-78
OVCAR-3 = system: OVCAR-3
ACHN = system: ACHN
CCRF-CEM = system: CCRF-CEM
KM12 = system: KM12
SK-MEL-5 = system: SK-MEL-5
COLO 205 = system: COLO 205
M19-MEL = system: M19-MEL
NCI-H23 = system: NCI-H23
HCT-116 = system: HCT-116
786-0 = system: 786-0
SNB-19 = system: SNB-19
SK-MEL-28 = system: SK-MEL-28
TK-10 = system: TK-10
EKVX = system: EKVX
SK-MEL-2 = system: SK-MEL-2
K562 = system: K562
UACC-257 = system: UACC-257
HT-29 = system: HT-29
DMS-273 = system: DMS-273
U-251 = system: U-251
MOLT-4 = system: MOLT-4
HCT-15 = system: HCT-15
A549 = system: A549
DLD-1 = system: DLD-1
RXF 393 = system: RXF 393
OVCAR-5 = system: OVCAR-5
UO-31 = system: UO-31
SN12C = system: SN12C
SK-OV-3 = system: SK-OV-3
HCC 2998 = system: HCC 2998
SF-539 = system: SF-539
HOP-18 = system: HOP-18
A498 = system: A498
XF498 = system: XF498
SNB-75 = system: SNB-75
M14 = system: M14
SF-268 = system: SF-268
SW-620 = system: SW-620
Malme-3M = system: Malme-3M
HOP-92 = system: HOP-92
OVCAR-4 = system: OVCAR-4
LXFL 529 = system: LXFL 529
OVCAR-8 = system: OVCAR-8
HL-60 = system: HL-60
LOX IMVI = system: LOX IMVI
CAKI-1 = system: CAKI-1
SF-295 = system: SF-295
NCI-H522 = system: NCI-H522

COC(=O)C(CCCN1C(=O)c2ccccc2C1=O)C(=O)OC
GI50 (DMS-114): > 100 µM (inactive)
GI50 (NCI-H460): > 100 µM (inactive)
GI50 (NCI-H226): > 100 µM (inactive)
GI50 (UACC-62): > 100 µM (inactive)
GI50 (KM-20L2): > 100 µM (inactive)
GI50 (HOP-62): > 100 µM (inactive)
GI50 (IGROV-1): > 100 µM (inactive)
GI50 (SNB-78): > 100 µM (inactive)
GI50 (OVCAR-3): > 100 µM (inactive)
GI50 (ACHN): > 100 µM (inactive)
GI50 (CCRF-CEM): > 100 µM (inactive)
GI50 (KM12): > 100 µM (inactive)
GI50 (SK-MEL-5): > 100 µM (inactive)
GI50 (COLO 205): > 100 µM (inactive)
GI50 (M19-MEL): > 100 µM (inactive)
GI50 (NCI-H23): > 100 µM (inactive)
GI50 (HCT-116): > 100 µM (inactive)
GI50 (786-0): > 100 µM (inactive)
GI50 (SNB-19): > 100 µM (inactive)
GI50 (SK-MEL-28): > 100 µM (inactive)
GI50 (TK-10): > 100 µM (inactive)
GI50 (EKVX): > 100 µM (inactive)
GI50 (SK-MEL-2): > 100 µM (inactive)
GI50 (K562): > 100 µM (inactive)
GI50 (UACC-257): > 100 µM (inactive)
GI50 (HT-29): > 100 µM (inactive)
GI50 (DMS-273): > 100 µM (inactive)
GI50 (U-251): > 100 µM (inactive)
GI50 (MOLT-4): > 100 µM (inactive)
GI50 (HCT-15): > 100 µM
GI50 (A549): > 100 µM (inactive)
GI50 (DLD-1): > 100 µM (inactive)
GI50 (RXF 393): > 100 µM (inactive)
GI50 (OVCAR-5): > 100 µM (inactive)
GI50 (UO-31): > 100 µM (inactive)
GI50 (SN12C): > 100 µM (inactive)
GI50 (SK-OV-3): > 100 µM (inactive)
GI50 (HCC 2998): > 100 µM (inactive)
GI50 (SF-539): > 100 µM (inactive)
GI50 (HOP-18): > 100 µM (inactive)
GI50 (A498): > 100 µM (inactive)
GI50 (XF498): > 100 µM (inactive)
GI50 (SNB-75): > 100 µM (inactive)
GI50 (M14): > 100 µM (inactive)
GI50 (SF-268): > 100 µM (inactive)
GI50 (SW-620): > 100 µM (inactive)
GI50 (Malme-3M): > 100 µM (inactive)
GI50 (HOP-92): > 100 µM (inactive)
GI50 (OVCAR-4): > 100 µM (inactive)
GI50 (LXFL 529): > 100 µM (inactive)
GI50 (OVCAR-8): > 100 µM (inactive)
GI50 (HL-60): > 100 µM (inactive)
GI50 (LOX IMVI): > 100 µM (inactive)
GI50 (CAKI-1): > 100 µM (inactive)
GI50 (SF-295): > 100 µM (inactive)
GI50 (NCI-H522): > 100 µM (inactive)

CC(C)=CC(=O)N(C)C1C2CN3CCC(O2)C13 (stereo unspecified)
GI50 (DMS-114): > 100 µM (inactive)
GI50 (NCI-H460): > 100 µM (inactive)
GI50 (NCI-H226): > 100 µM (inactive)
GI50 (UACC-62): > 100 µM (inactive)
GI50 (KM-20L2): > 100 µM (inactive)
GI50 (HOP-62): > 100 µM (inactive)
GI50 (IGROV-1): > 100 µM (inactive)
GI50 (SNB-78): > 100 µM (inactive)
GI50 (OVCAR-3): > 100 µM (inactive)
GI50 (ACHN): > 100 µM (inactive)
GI50 (CCRF-CEM): > 100 µM (inactive)
GI50 (KM12): > 100 µM (inactive)
GI50 (SK-MEL-5): > 100 µM (inactive)
GI50 (COLO 205): > 100 µM (inactive)
GI50 (M19-MEL): > 100 µM (inactive)
GI50 (NCI-H23): > 100 µM (inactive)
GI50 (HCT-116): > 100 µM (inactive)
GI50 (786-0): > 100 µM (inactive)
GI50 (SNB-19): > 100 µM (inactive)
GI50 (SK-MEL-28): > 100 µM (inactive)
GI50 (TK-10): > 100 µM (inactive)
GI50 (EKVX): > 100 µM (inactive)
GI50 (SK-MEL-2): > 100 µM (inactive)
GI50 (K562): > 100 µM (inactive)
GI50 (UACC-257): > 100 µM (inactive)
GI50 (HT-29): > 100 µM (inactive)
GI50 (DMS-273): > 100 µM (inactive)
GI50 (U-251): > 100 µM (inactive)
GI50 (MOLT-4): > 100 µM (inactive)
GI50 (HCT-15): > 100 µM
GI50 (A549): > 100 µM (inactive)
GI50 (DLD-1): > 100 µM (inactive)
GI50 (RXF 393): > 100 µM (inactive)
GI50 (OVCAR-5): > 100 µM (inactive)
GI50 (UO-31): > 100 µM (inactive)
GI50 (SN12C): > 100 µM (inactive)
GI50 (SK-OV-3): > 100 µM (inactive)
GI50 (HCC 2998): > 100 µM (inactive)
GI50 (SF-539): > 100 µM (inactive)
GI50 (HOP-18): > 100 µM (inactive)
GI50 (A498): > 100 µM (inactive)
GI50 (XF498): > 100 µM (inactive)
GI50 (SNB-75): > 100 µM (inactive)
GI50 (M14): > 100 µM (inactive)
GI50 (SF-268): > 100 µM (inactive)
GI50 (SW-620): > 100 µM (inactive)
GI50 (Malme-3M): > 100 µM (inactive)
GI50 (OVCAR-4): > 100 µM (inactive)
GI50 (LXFL 529): > 100 µM (inactive)
GI50 (OVCAR-8): > 100 µM (inactive)
GI50 (HL-60): > 100 µM (inactive)
GI50 (LOX IMVI): > 100 µM (inactive)
GI50 (CAKI-1): > 100 µM (inactive)
GI50 (SF-295): > 100 µM (inactive)
GI50 (NCI-H522): > 100 µM (inactive)
